According to PMC6853638, “TMC1 is an essential component of a leak channel that modulates tonotopy and excitability of auditory hair cells in mice” (eLife, 2019):
Where a chain is given by its changes, count along the chain named. Values joined by “and” are separate entries in the source; they are usually repeats but may differ in a detail not shown here. Equal values may be shown once.

Tests used:
Assay in all cases: Background current before and after MTSET treatment in Tmc1-knockout OHCs expressing cysteine-substituted TMC1
[1] = biological target: T1, cysteine-substituted TMC1 constructs (Mus musculus, UniProt Q8R4P5, D528C); type: cell-based; conditions: Tmc1-knockout OHCs expressing TMC1-D528C, individual cells
T1 construct: control full-length TMC1 (TMC1_WT); expressed in transfected cells; host or cells: Tmc1-knockout mouse OHCs, injectoporation
T1 sequence (Q8R4P5 1-757 D528C): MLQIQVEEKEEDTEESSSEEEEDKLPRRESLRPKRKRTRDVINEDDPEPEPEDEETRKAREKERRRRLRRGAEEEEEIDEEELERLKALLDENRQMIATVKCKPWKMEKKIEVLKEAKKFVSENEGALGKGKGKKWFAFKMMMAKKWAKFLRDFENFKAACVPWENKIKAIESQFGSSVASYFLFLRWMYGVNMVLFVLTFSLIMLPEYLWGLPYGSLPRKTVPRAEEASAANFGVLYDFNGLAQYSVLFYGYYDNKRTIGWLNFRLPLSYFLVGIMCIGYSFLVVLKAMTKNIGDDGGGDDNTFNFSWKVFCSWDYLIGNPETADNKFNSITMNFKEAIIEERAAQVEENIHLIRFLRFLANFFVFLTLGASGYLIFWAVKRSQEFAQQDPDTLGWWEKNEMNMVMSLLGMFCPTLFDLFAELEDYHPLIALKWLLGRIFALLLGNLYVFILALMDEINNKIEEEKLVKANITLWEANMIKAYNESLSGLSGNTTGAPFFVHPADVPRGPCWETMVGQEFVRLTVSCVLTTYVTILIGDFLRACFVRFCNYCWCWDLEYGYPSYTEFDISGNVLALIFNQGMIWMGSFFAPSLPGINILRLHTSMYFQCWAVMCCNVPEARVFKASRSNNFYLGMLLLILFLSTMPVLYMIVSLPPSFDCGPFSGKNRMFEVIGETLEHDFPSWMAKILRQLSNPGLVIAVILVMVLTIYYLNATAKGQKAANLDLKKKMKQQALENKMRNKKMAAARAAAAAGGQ
Procedure: (§1) Mouse Tmc1 and Tmc2 cDNAs were cloned into CMV-Script and pCDNA3.1- vectors, respectively. To obtain the Tmc1-deafness vector and amino-acid-substituted Tmc1 constructs, specific primers were designed and used for PCR (Supplementary File 1). […] In brief, the organ of Corti was isolated from P3 mice and cut into three pieces in Dulbecco’s modified Eagle’s medium/F12 with 1.5 μg/ml ampicillin. For electroporation, a glass pipette (2 μm tip diameter) was used to deliver cDNA plasmids (0.2 μg/μl in 1 × Hanks' balanced salt solution) to hair cells in the sensory epithelium. EGFP was used as an indicator for the selection of transfected hair cells. A series of three pulses at 60 V lasting 15 ms at 1 s intervals was applied to cochlear tissues by an electroporator (ECM Gemini X2, BTX, CA). The cochlear tissues were cultured for 1 day in vitro and then used for electrophysiological recording.
(§2) All experiments were performed at room temperature (20–25°C). Briefly, the basilar membrane with hair cells was acutely dissected from neonatal mice. […] The acutely isolated or cultured basilar membrane was used for electrophysiological recording within 1 h. […] Hair cells were recorded with a patch-clamp amplifier (EPC 10 USB and Patchmaster software, HEKA Elektronik, Lambrecht/Pfalz, Germany).
(§3) The sampling rate was 1 kHz for leak current recording, 50 kHz for the IV protocol and current-clamp recording, and 100 kHz for unitary channel recording. The voltage-clamp used a –70 mV holding potential, and the current-clamp was held at 0 pA. Only recordings with a current baseline <20 pA in NMDG solution were used for statistical analysis.

[2] = biological target: T2, cysteine-substituted TMC1 constructs (Mus musculus, UniProt Q8R4P5, N447C); type: cell-based; conditions: Tmc1-knockout OHCs expressing TMC1-N447C, individual cells
T2 construct: control full-length TMC1 (TMC1_WT); expressed in transfected cells; host or cells: Tmc1-knockout mouse OHCs, injectoporation
T2 sequence (Q8R4P5 1-757 N447C): T1 sequence (Q8R4P5 1-757 D528C) with N447C, C528D
Procedure: as §1, §2, §3

[3] = tested on: cysteine-substituted TMC1 constructs; type: cell-based, mouse; conditions: OHCs expressing any of the six cysteine-substituted TMC1 constructs
Procedure: as §1, §2, §3

C[N+](C)(C)CCSS(C)(=O)=O.[Br-] [MTSET, 2-(trimethylammonium)ethyl methanethiosulfonate, bromide]
amplitude of the background current after MTSET treatment [1]: -23.6585 and -22.824 and -11.63 and -11.1296
amplitude of the background current after MTSET treatment [2]: -12.9811 and -13.0886 and -13.798 and -25.7685 and -27.4817 and -21.0828
effect on the current baseline [3]: did not, however, change the current baseline
